In paper PMC4147343, “Icotinib antagonizes ABCG2-mediated multidrug resistance, but not the pemetrexed resistance mediated by thymidylate synthase and ABCG2” (Oncotarget, 2014):
Changes are numbered by the printed parent chain.

Columns and labels:
[1] = biological target: T1, ABCG2 (Homo sapiens, UniProt Q9UNQ0); experiment: competition of […]-IAAP photoaffinity labeling in crude membranes; also ATPase stimulation ([…] of maximum at […]); format: binding
T1 construct: wild-type ABCG2 in crude membranes of MCF-7 FLV1000 cells
T1 sequence (Q9UNQ0 1-655): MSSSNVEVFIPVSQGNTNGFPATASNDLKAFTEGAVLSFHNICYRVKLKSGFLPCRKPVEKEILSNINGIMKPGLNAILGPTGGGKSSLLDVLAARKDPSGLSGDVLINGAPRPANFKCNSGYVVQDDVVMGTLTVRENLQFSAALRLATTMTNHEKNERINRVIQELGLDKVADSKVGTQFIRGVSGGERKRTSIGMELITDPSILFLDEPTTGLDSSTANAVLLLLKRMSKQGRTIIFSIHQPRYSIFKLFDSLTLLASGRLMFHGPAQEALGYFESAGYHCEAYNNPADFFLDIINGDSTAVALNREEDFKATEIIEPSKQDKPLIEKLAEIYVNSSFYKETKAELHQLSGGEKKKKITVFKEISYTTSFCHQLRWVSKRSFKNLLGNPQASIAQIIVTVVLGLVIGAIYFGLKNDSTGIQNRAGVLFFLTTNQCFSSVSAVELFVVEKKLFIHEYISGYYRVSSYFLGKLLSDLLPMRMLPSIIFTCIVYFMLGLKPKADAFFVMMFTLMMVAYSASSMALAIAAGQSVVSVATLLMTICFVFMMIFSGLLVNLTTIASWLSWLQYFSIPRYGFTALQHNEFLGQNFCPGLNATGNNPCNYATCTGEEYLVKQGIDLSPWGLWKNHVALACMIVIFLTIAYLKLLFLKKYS

[2] = biological target: T2, ABCG2 (Homo sapiens, UniProt Q9UNQ0, R482G); experiment: [3H]-mitoxantrone accumulation in transfected cells ([…]); format: cell-based
T2 construct: full-length ABCG2 in transfected HEK293 cells (ABCG2-482-G2)
T2 sequence (Q9UNQ0 1-655 R482G): T1 sequence (Q9UNQ0 1-655) with R482G

With `C#Cc1cccc(Nc2ncnc3cc4c(cc23)OCCOCCOCCO4)c1` [Icotinib] the IC50 [1] was 1610 nM and the “[3H]-mitoxantrone accumulation in transfected cells (1.0 and 5.0 μM)” value [2] was “significantly increased intracellular accumulation of [^3H]-MX in both the NCI-H460 and NCI-H460/MX20 cells, as well as the ABCG2-482-R2, ABCG2-482-G2”.
